Read-outs that look alike come from different tables or passages of the source. Values belong to the compound of their own block, whether it stands above or below them.
Legend:
[1] = test system: SW620 colon cancer cell with KRAS G12V mutation; experiment: Proliferation inhibition on RAS cell lines measured by CTG, SW620; format: cell-based; settings: Table 1, SW620 cells, incubated for 6 days, CellTiter Glo, read-out: IC50 (SW620 ^c)
Source text: (§1) NCI-H358 is a human non-small cell lung cancer cell line with KRAS G12C mutation; AGS is a gastric cancer cell line with KRAS G12D mutation; SW620 is a colon cancer cell with KRAS G12V mutation; NCI-H460 is a non-small cell lung cancer cell with KRAS Q61H mutation; MKN1 is a wild-type gastric cancer cell with KRAS-amplified; LS513 is a colon cancer cell with KRAS G12D mutation; LoVo is a colon cancer cell with KRAS G13D mutation; NCI-H441 is a lung cancer cell with KRAS G12V mutation, and Capan-2 is a pancreatic cancer cell with KRAS G12V mutation.
(§2) The proliferation inhibitory effect of the compounds on various mutations was evaluated by determining the proliferation inhibitory activity of the compounds on these cell lines.
(§3) The assay was conducted on either 384-well plates or 96-well plates. The procedures are as follows:
(§4) The cell suspensions were added to 384- or 96-well plates (384-well plate: 50 μL; 96-well plate: 100 μL) except for peripheral wells. The plates were placed in a carbon dioxide incubator overnight. NCI-H358, AGS, NCI-H460, MKN-1, LS513, LoVo, and NCI-H441 were placed in a 5%, 370 carbon dioxide incubator overnight, and SW620 was placed in a 0%, 370 carbon dioxide incubator overnight. The HPD300 micro-dosing instrument was used to add the corresponding concentration of compound to each well (9-10 concentration gradients of compound were obtained by 3-fold dilution). Cell plates were incubated in a carbon dioxide incubator for 5-6 days. NCI-H358, AGS, NCI-H460 and MKN-1 were incubated at 5%, 37° incubator and SW620 was incubated at 0%, 370 incubator. On the day of plate measurement, the 384- or 96-well plates were first equilibrated at room temperature for 10-30 min, then CellTiter Glo reagent (384-well plate: 25 μL; 96-well plate: 100 μL) was added to the 384- or 96-well plate, shaken for 10 min away from light, and incubated for 10 min. The plates were placed into Victor NIVO or ENVIDION reader plates, and XLFit was utilized to plot the pharmacodynamic inhibition curve and calculate the IC50 value. “IC50>10 μM” is denoted by “*”, “10 μM≥IC50≥1 μM” is denoted by “**”, and “1 μM≥IC50>100 nM” is denoted by “***”, “IC50<100 nM” is denoted by “****”

[2] = test system: AGS gastric cancer cell line with KRAS G12D mutation; experiment: Proliferation inhibition on RAS cell lines measured by CTG (CellTiter Glo), AGS; format: cell-based; settings: Table 1, AGS cells, incubated for 5 days
Source text: as §1, §2, §3, §4

[3] = test system: MKN1 wild-type gastric cancer cell with KRAS-amplified; experiment: Proliferation inhibition on RAS cell lines measured by CTG, MKN1; format: cell-based; settings: Table 1, MKN1 cells, incubated for 6 days, CellTiter Glo, read-out: IC50 (MKN1 ^e)
Source text: as §1, §2, §3, §4

[4] = test system: NCI-H460 non-small cell lung cancer cell with KRAS Q61H mutation; experiment: Proliferation inhibition on RAS cell lines measured by CTG, NCI-H460; format: cell-based; settings: Table 1, NCI-H460 cells, incubated for 6 days, CellTiter Glo, read-out: IC50 (NCI-H460 ^d)
Source text: as §1, §2, §3, §4

[5] = test system: NCI-H358 human non-small cell lung cancer cell line with KRAS G12C mutation; experiment: Proliferation inhibition on RAS cell lines measured by CTG, NCI-H358; format: cell-based; settings: Table 1, NCI-H358 cells, incubated for 6 days, CellTiter Glo, read-out: IC50 (H358 ^b)
Source text: as §1, §2, §3, §4

[6] = test system: LoVo colon cancer cell with KRAS G13D mutation; experiment: Proliferation inhibition on RAS cell lines measured by CTG, LoVo; format: cell-based; settings: LoVo cells, incubated for 6 days, read-out: IC50 (LoVo^g)
Source text: as §1, §2, §3, §4

[7] = test system: NCI-H441 lung cancer cell with KRAS G12V mutation; experiment: Proliferation inhibition on RAS cell lines measured by CTG, NCI-H441; format: cell-based; settings: NCI-H441 cells, incubated for 6 days
Source text: as §1, §2, §3, §4

[8] = test system: LS513 colon cancer cell with KRAS G12D mutation; experiment: Proliferation inhibition on RAS cell lines measured by CTG, LS513; format: cell-based; settings: LS513 cells, incubated for 6 days, read-out: IC50 (LS513^f)
Source text: as §1, §2, §3, §4

[9] = Pharmacokinetic study in mice after intravenous administration; format: in vivo; settings: mouse, 5 mg/kg, male C57BL/6J mice, plasma
Description: (§5) After intravenous and oral administration in male C57BL/6J mice (6-8 weeks), plasma samples were collected through the orbital venous plexus at 8 time points (5 min, 15 min, 30 min, 1 h, 2 h, 4 h, 7 h, 24 h), and the collected blood samples were transferred to microcentrifuge tubes containing EDTA-K2 anticoagulant, and centrifuged at 4° C., 4,000 g. After 5 min, the supernatant was taken and stored in a refrigerator at −75° C. ±15° C. LC-MS/MS was used to detect the concentrations of the compounds in the plasma at different time points, and the relevant pharmacokinetic parameters […] were calculated using WinNonlin software.

[10] = Pharmacokinetic study in mice after oral administration; format: in vivo; settings: mouse, 30 mg/kg, male C57BL/6J mice, plasma
Description: as §5

[11] = test system: Capan-2 pancreatic cancer cell with KRAS G12V mutation; experiment: Proliferation inhibition on RAS cell lines measured by CTG, Capan-2; format: cell-based; settings: Homo sapiens, 144 h; Table 2; Capan-2 cells, incubated for 6 days, CellTiter Glo; read-out: IC50 (Capan-2^i)
Source text: as §1, §2, §3, §4

[12] = Homo sapiens, LoVo, 144 h, Table 1, CellTiter Glo
[13] = Homo sapiens, NCI-H441, 144 h, Table 1, CellTiter Glo
[14] = Homo sapiens, LS-513, 144 h, Table 1, CellTiter Glo
[15] = Homo sapiens, LS-513, 144 h, Table 2, CellTiter Glo

Compound: C#Cc1c(F)ccc2cc(O)cc(-c3ncc4c(N5CCCCCN5)nc(OCC56CCCN5CCC6)nc4c3F)c12 [Compound 25]
- IC50 [8, 15]: < 100 nM
- IC50 [11]: 100 to 1000 nM

Compound: C#Cc1c(F)ccc2cc(O)cc(-c3ncc4c(N5CCCCCO5)nc(OC[C@@]56CCCN5C[C@H](F)C6)nc4c3F)c12 [Compound 9]
- IC50 [6, 12]: < 100 nM
- IC50 [7, 13]: < 100 nM
- IC50 [8, 14]: < 100 nM

Compound: CCc1c(F)ccc2cc(O)cc(-c3ncc4c(N5CCOCCN5)nc(OC[C@@]56CCCN5C[C@H](F)C6)nc4c3F)c12 [Compound 8]
- IC50 ([1]; Homo sapiens, SW-620, 144 h): < 100 nM
- IC50 ([2]; Homo sapiens, 120 h): < 100 nM
- IC50 ([3]; Homo sapiens, MKN-1, 144 h): < 100 nM
- IC50 ([4]; Homo sapiens, 144 h): 100 to 1000 nM
- IC50 ([5]; Homo sapiens, 144 h): < 100 nM

Compound: CCc1c(F)ccc2cc(O)cc(-c3ncc4c(N5CC(C)(O)CCN5)nc(OCC56CCCN5CC(F)C6)nc4c3F)c12 (single isomer, unassigned) [Compound 2-1]
- IC50 [1]: < 100 nM
- IC50 ([6]; Table 1, CellTiter Glo): < 100 nM
- IC50 [2]: < 100 nM
- IC50 ([7]; Table 1, CellTiter Glo, read-out: IC50 (NCI-H441^h)): 100 to 1000 nM
- IC50 ([8]; Table 1, CellTiter Glo): < 100 nM
- IC50 [3]: < 100 nM
- IC50 [4]: 1000 to 10000 nM
- IC50 [5]: < 100 nM

Compound: CCc1c(F)ccc2cc(O)cc(-c3ncc4c(N5CCCCCN5)nc(OCC5(CN(C)C)CC5)nc4c3F)c12 [Compound 28]
- IC50 [8, 15]: < 100 nM
- IC50 [11]: 100 to 1000 nM

Compound: CCc1c(F)ccc2cc(O)cc(-c3ncc4c(N5CCCCCO5)nc(OC[C@@]56CCCN5C[C@H](F)C6)nc4c3F)c12 [Compound 10]
- IC50 [6, 12]: 100 to 1000 nM
- IC50 [7, 13]: 100 to 1000 nM
- IC50 [8, 14]: < 100 nM

The next lines start with the values.

- IC50 [1]: < 100 nM
- IC50 [2]: < 100 nM
- IC50 [3]: 100 to 1000 nM
- IC50 [4]: 1000 to 10000 nM
- IC50 [5]: < 100 nM
Compound: C#Cc1c(F)ccc2cc(O)cc(-c3ncc4c(N5CCOCCN5)nc(OC[C@@]56CCCN5C[C@H](F)C6)nc4c3F)c12 [Compound 7]

- IC50 [6, 12]: 100 to 1000 nM
- IC50 [7, 13]: 100 to 1000 nM
- IC50 [8, 14]: < 100 nM
Compound: C#Cc1c(F)ccc2cccc(-c3ncc4c(N5CCCCCN5)nc(OC[C@@]56CCCN5C[C@H](F)C6)nc4c3F)c12 [Compound 11]

- IC50 ([1]; Homo sapiens, SW-620, 144 h): < 100 nM
- AUC(0-inf) [9]: 24300 ng·h/mL
- AUC(0-t) [9]: 24300 ng·h/mL
- C0 [9]: 96100 ng/mL
- clearance [9]: 3.43 mL/min/kg
- half-life ([9]; 5% DMSO + 10% Solutol HS15 + 85% (20% HP-β-CD in water)): 2.63 h
- Vd ([9]; read-out: Vss): 0.205 L/kg
- IC50 ([6]; Homo sapiens, LoVo, 144 h, Table 1, numeric value): 7.8 nM
- IC50 [6, 12]: < 100 nM
- IC50 ([2]; Homo sapiens, 120 h): < 100 nM
- IC50 ([7]; Homo sapiens, NCI-H441, 144 h, Table 1, numeric value): 3.6 nM
- IC50 [7, 13]: < 100 nM
- IC50 ([8]; Homo sapiens, LS-513, 144 h, Table 1, numeric value): 3.6 nM
- IC50 [8, 14]: < 100 nM
- IC50 ([3]; Homo sapiens, MKN-1, 144 h): < 100 nM
- IC50 ([4]; Homo sapiens, 144 h): 100 to 1000 nM
- IC50 ([5]; Homo sapiens, 144 h): < 100 nM
- AUC(0-inf) [10]: 10400 ng·h/mL
- AUC(0-t) [10]: 10400 ng·h/mL
- Cmax [10]: 2290 ng/mL
- Tmax [10]: 4 h
- half-life ([10]; 0.1% Tween 80 + 0.5% MC in water): 1.89 h
Compound: C#Cc1c(F)ccc2cc(O)cc(-c3ncc4c(N5CCCCCN5)nc(OC[C@@]56CCCN5C[C@H](F)C6)nc4c3F)c12 [Compound 4]

- IC50 [8, 15]: < 100 nM
- IC50 [11]: 100 to 1000 nM
Compound: C#Cc1c(F)ccc2cc(O)cc(-c3nc(OC)c4c(N5CCCCCN5)nc(OC[C@@]56CCCN5C[C@H](F)C6)nc4c3F)c12 [Compound 33]

- IC50 [8, 15]: < 100 nM
- IC50 [11]: < 100 nM
Compound: C#Cc1cccc2cc(O)cc(-c3ncc4c(N5CCCCCN5)nc(OC[C@@]56CCCN5C[C@H](F)C6)nc4c3F)c12 [Compound 36]

- IC50 [8, 15]: 100 to 1000 nM
- IC50 [11]: 1000 to 10000 nM
Compound: CCc1c(F)ccc2cc(O)cc(-c3ccc4c(N5CCCCCN5)nc(OC[C@@]56CCCN5C[C@H](F)C6)nc4c3)c12 [Compound 27]

- IC50 ([1]; Homo sapiens, SW-620, 144 h): < 100 nM
- IC50 ([2]; Homo sapiens, 120 h): < 100 nM
- IC50 ([3]; Homo sapiens, MKN-1, 144 h): < 100 nM
- IC50 ([4]; Homo sapiens, 144 h): 100 to 1000 nM
- IC50 ([5]; Homo sapiens, 144 h): < 100 nM
Compound: CCc1c(F)ccc2cc(O)cc(-c3ncc4c(N5CCCCCN5)nc(OC[C@@]56CCCN5C[C@H](F)C6)nc4c3F)c12 [Compound 3]

- IC50 [8, 15]: 100 to 1000 nM
- IC50 [11]: 1000 to 10000 nM
Compound: C#Cc1c(F)ccc2cc(O)cc(-c3ccc4c(N5CCCCCN5)nc(OC[C@@]56CCCN5C[C@H](F)C6)nc4c3)c12 [Compound 26]

Reference: patent US20240425512A1, “NITROGEN-CONTAINING HETEROCYCLIC COMPOUND, PHARMACEUTICAL COMPOSITION THEREOF AND APPLICATION THEREOF” (280 Bio, Inc., priority 2023, published 2024)
